{"source": "patent US11649458B2", "about": "“Inhibiting angiotensinogen to attenuate aortic pathology in Marfan syndrome” (UNIVERSITY OF KENTUCKY RESEARCH FOUNDATION, priority 2020, dated 2023)", "key": {"[1]": {"test_system": "patients with Marfan syndrome", "conditions": "male less than 16 years old, female less than 15; losartan p=0.002, atenolol p<0.001; cited from earlier work"}, "FBN1 mgR/mgR mice": {"test_system": "FBN1 mgR/mgR mice", "experiment": "Survival and ascending aortic diameter in FBN1 mgR/mgR mice with established aortic dilation infused with enalapril or losartan by osmotic mini pump", "format": "in vivo", "conditions": "for survival after 12 weeks versus PBS: mini pump from 6 weeks of age", "procedure": "Male and female fibrillin-1 hypomorphic (FBN1 mgR/mgR) mice (n=10-12/group) were stratified into treatment groups by aortic diameter at 6 weeks of age to ensure an equivalent average aortic diameter in each group at the start of the study. Osmotic mini pumps filled with PBS (vehicle), enalapril (2 mg/kg/d), or losartan (20 mg/kg/d) were implanted subcutaneously into mice after stratification. Mini pumps infusing drug or vehicle were replaced every 4 weeks for a total duration of 12 weeks. Wild type littermates (n=10) were infused with PBS as a negative control to the Marfan mouse model. Ascending aortic diameters from male and female FBN1 mgR/mgR mice and their wild type littermates were assessed by ultrasound every 4 weeks from 6 to 18 weeks of age. Aortic diameters were measured luminal edge to luminal edge during diastole."}, "[2]": {"test_system": "individuals with Marfan syndrome", "conditions": "cited from earlier work"}, "Fbn1^mgR/mgR mice": {"test_system": "Fbn1^mgR/mgR mice", "experiment": "Survival of Fbn1^mgR/mgR mice given losartan in drinking water starting at P24 or P50", "format": "in vivo", "conditions": "for survival compared to Fbn1^mgR/mgR mice receiving no drug, survival analysis starting at P50: p=0.017", "from_the_text": "Male (n=40) and female (n=28) Fbn1^mgR/mgR mice were randomized to receive losartan in drinking water (0.6 g/L) starting at either postnatal day 24 (P24) or 50 (P50). Data derived from these mice was compared to littermate Fbn1^mgR/mgR (20 males, 14 females) and wild type (15 males, 15 females) mice that were given vehicle only. All mice were terminated at 20 weeks of age. Mice that died during the study were necropsied to determine cause of death."}, "[3]": {"test_system": "male FBN1^mgR/mgR (mgR) mice", "experiment": "Losartan withdrawal in male FBN1^mgR/mgR mice, death by aortic rupture", "format": "in vivo", "from_the_text": "Withdrawal of losartan during late adolescence (52 days of age) was followed by 6/10 mice dying by aortic rupture within 4 weeks (shaded area). (*=p<0.05. Censored data include humane endpoints and non-rupture events.)"}, "mouse models of TAA": {"test_system": "mouse models of TAA", "conditions": "cited from earlier work"}, "[4]": {"test_system": "patients with Marfan syndrome", "conditions": "median follow-up 8 years; control group 5; p=0.14; cited from earlier work"}, "[5]": {"conditions": "female mgR mice, PBS=1.92+/-0.13, p=0.86, no significant difference"}, "[6]": {"conditions": "male mgR mice, PBS=2.69+/-0.19 mm, p=0.24, no significant difference"}}}
{"smiles": "CC(C)NCC(O)COc1ccc(CC(N)=O)cc1", "note": "(stereo not drawn) [atenolol]", "values": [{"measurement": "change in aortic-root z scores over time with younger age of initiation", "setting": "[1]", "result": "greater decrease"}]}
{"smiles": "CCOC(=O)[C@H](CCc1ccccc1)N[C@@H](C)C(=O)N1CCC[C@H]1C(=O)O", "note": "[enalapril]", "values": [{"measurement": "survival after 12 weeks versus PBS", "setting": "FBN1 mgR/mgR mice; female mgR mice, p=0.094", "result": "no significant difference"}, {"measurement": "maximum ascending aortic diameter after treatment for 12 weeks", "setting": "FBN1 mgR/mgR mice; [5]", "result": "1.89+/−0.31"}, {"measurement": "survival after 12 weeks versus PBS", "setting": "FBN1 mgR/mgR mice; male mgR mice, p=0.224", "result": "no significant difference"}, {"measurement": "maximum ascending aortic diameter after treatment for 12 weeks", "setting": "FBN1 mgR/mgR mice; [6]", "result": "2.04+/−0.27 mm"}]}
{"smiles": "CCCCC1=NC2(CCCC2)C(=O)N1Cc1ccc(-c2ccccc2-c2nnn[nH]2)cc1", "note": "[irbesartan]", "values": [{"measurement": "aortic root expansion", "setting": "[2]", "result": "significantly attenuated"}]}
{"smiles": "CCCCc1nc(Cl)c(CO)n1Cc1ccc(-c2ccccc2-c2nn[nH]n2)cc1", "note": "[losartan]", "values": [{"measurement": "survival benefit in female mice", "setting": "Fbn1^mgR/mgR mice; female Fbn1^mgR/mgR mice, survival not different from wild type females", "result": "not possible to detect a survival benefit"}, {"measurement": "survival compared to Fbn1^mgR/mgR males receiving no drug", "setting": "Fbn1^mgR/mgR mice; males, losartan 0.6 g/L drinking water from P24, p<0.001, log-rank", "result": "increased"}, {"measurement": "survival compared to wild type male mice", "setting": "Fbn1^mgR/mgR mice; males, losartan from P24, p=0.138", "result": "not different"}, {"measurement": "survival compared to wild type mice", "setting": "Fbn1^mgR/mgR mice; males, losartan from P50, p=0.002", "result": "decreased"}, {"measurement": "survival compared to Fbn1^mgR/mgR mice receiving no drug, survival analysis starting at P50", "setting": "Fbn1^mgR/mgR mice; males, losartan from P50", "result": "increased survival"}, {"measurement": "survival compared to Fbn1^mgR/mgR mice receiving no drug, survival analysis starting at P50", "setting": "Fbn1^mgR/mgR mice; males, losartan from P50, listed as Losartan", "result": "improves survival"}, {"measurement": "survival compared to Fbn1^mgR/mgR males receiving no drug", "setting": "Fbn1^mgR/mgR mice; males, losartan from P50, p=0.194", "result": "not different"}, {"measurement": "mortality due to aortic rupture compared to mgR controls", "setting": "[3]; male mgR mice, losartan in drinking water from 24 days of age, p<0.05", "result": "protected from mortality"}, {"measurement": "mice dying by aortic rupture within 4 weeks of losartan withdrawal", "setting": "[3]; withdrawal at 52 days of age", "result": "6/10"}, {"measurement": "aortic root expansion in Fbn1^C1041G/+ mice", "setting": "mouse models of TAA; literature ref 9", "result": "decrease aortic root expansion"}, {"measurement": "aortic expansion in other mouse models of TAA", "setting": "mouse models of TAA; literature refs 6-11", "result": "reduces aortic expansion"}, {"measurement": "efficacy when administered after significant thoracic aortic dilation has already occurred", "setting": "FBN1 mgR/mgR mice; FBN1^mgR/mgR mice", "result": "not effective"}, {"measurement": "survival after 12 weeks versus PBS", "setting": "FBN1 mgR/mgR mice; female mgR mice, p=0.094", "result": "no significant difference"}, {"measurement": "maximum ascending aortic diameter after treatment for 12 weeks", "setting": "FBN1 mgR/mgR mice; [5]", "result": "1.98+/−0.17"}, {"measurement": "survival after 12 weeks versus PBS", "setting": "FBN1 mgR/mgR mice; male mgR mice, p=0.224", "result": "no significant difference"}, {"measurement": "maximum ascending aortic diameter after treatment for 12 weeks", "setting": "FBN1 mgR/mgR mice; [6]", "result": "2.42+/−0.28 mm"}, {"measurement": "number of deaths", "setting": "[4]", "result": 0}, {"measurement": "change in aortic-root z scores over time with younger age of initiation", "setting": "[1]", "result": "greater decrease"}]}
